The source of these data is patent US20150344485A1, “BICYCLIC PYRIMIDONE COMPOUNDS AS INHIBITORS OF LP-PLA2” (GLAXOSMITHKLINE INTELLECTUAL PROPERTY DEVELOPMENT LIMITED, priority 2013, published 2015).

Each structure is given as a SMILES string.

This experiment has as its target T1, Lp-PLA2 in human plasma (Homo sapiens, UniProt Q13093).
T1 construct: from tissue; host or cells: pooled human plasma
T1 sequence (Q13093 22-441): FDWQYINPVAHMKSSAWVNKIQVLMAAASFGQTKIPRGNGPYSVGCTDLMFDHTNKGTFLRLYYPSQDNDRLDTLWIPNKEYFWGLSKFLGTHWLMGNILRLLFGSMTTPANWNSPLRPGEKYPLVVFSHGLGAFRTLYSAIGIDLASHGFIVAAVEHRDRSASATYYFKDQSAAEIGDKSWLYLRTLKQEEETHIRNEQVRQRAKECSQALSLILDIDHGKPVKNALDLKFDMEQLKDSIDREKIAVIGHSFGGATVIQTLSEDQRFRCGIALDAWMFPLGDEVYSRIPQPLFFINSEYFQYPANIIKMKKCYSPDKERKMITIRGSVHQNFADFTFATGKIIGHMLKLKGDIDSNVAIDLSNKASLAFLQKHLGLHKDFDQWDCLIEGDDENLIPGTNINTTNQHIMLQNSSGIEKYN
The experiment in a line: Lp-PLA2 human plasma assay (Thio-PAF assay). It counts as biochemical. The settings on record: pooled human plasma; read-out: pIC50 values in the thio-PAF assay (converted). From the text: The human plasma assay utilizes a thioester analog of PAF (phosphatidylcholine), where hydrolysis yields to the formation of a phospholipid containing a free thiol group. The amount of thiol is quantitated continuously by reacting with CPM (7-diethylamino-3-(4′-maleimidylphenyl)-4-methylcoumarin), a maleimide which increases in fluoresence after Michael addition of thiols. This assay may detect the activity of Lp-PLA2 in human plasma, as determined by specific inhibition by Lp-PLA2 inhibitors.
The thio-PAF assay was run as a quenched 15 μL assay. Compounds source plate was prepared by making 1:3 (by volume) serial dilution of the compounds into pure DMSO on 384-well microplate. 0.01 μL of compounds on compound source plate were transferred to 384 well Greiner 784076 (black) low-volume plates by ECHO liquid dispenser. 8 μL pooled human plasma, which was previously aliquoted and frozen, was added. Plates were centrifuged for 10 sec at 500 rpm. After 30 minutes preincubation, 2 μL of substrate solution comprising 2.5 mM 2-thio-PAF [from ethanol stock], 32 μM CPM [from a DMSO stock] and 3.2 mM NEM (N-ethylmaleimide) [made fresh daily in DMSO] in assay buffer of 50 mM HEPES, pH 7.4, 150 mM NaCl, 1 mM CHAPS was added to 384 well Greiner 784076 (black) low-volume plates by BRAVO liquid handling station. After 2 mins, reaction was quenched with 5 μL of 5% aqueous trifluoroacetic acid (TFA). Plates were covered to protect from light and incubated for 40 min at room temperature. Plates were read at ex: 380/em: 485 using-Envision microplate reader. pIC50 data, curve and QC analysis was conducted by using XLFit module in Excel.
Regarding `CCN1c2cc(OCc3cc(F)c(F)cc3F)nc(=O)n2CC[C@@H]1C` [E52, (S)-1-ethyl-2-methyl-8-((2,4,5-trifluorobenzyl)oxy)-3,4-dihydro-1H-pyrimido[1,6-a]pyrimidin-6(2H)-one], the IC50 was not above 100 nM.

Consider `[2H]C([2H])(Oc1cc2n(c(=O)n1)CC[C@H](C)N2C)c1cc(F)c(F)c(F)c1` [E36, (S)-8-(dideutero(3,4,5-trifluorophenyl)methoxy)-1,2-dimethyl-3,4-dihydro-1H-pyrimido[1,6-a]pyrimidin-6(2H)-one], for which the IC50 was not above 100 nM.

`C[C@@H]1CCn2c(cc(OCc3cccc(F)c3F)nc2=O)N1C` [E18, (R)-8-((2,3-difluorobenzyl)oxy)-1,2-dimethyl-3,4-dihydro-1H-pyrimido[1,6-a]pyrimidin-6(2H)-one]: the IC50 was not above 100 nM. For `C[C@H]1CCn2c(cc(OCc3ccc(Oc4ccc(C(F)(F)F)cc4)c(C#N)c3)nc2=O)N1C` [E61, (S)-5-(((1,2-dimethyl-6-oxo-2,3,4,6-tetrahydro-1H-pyrimido[1,6-a]pyrimidin-8-yl)oxy)methyl)-2-(4-(trifluoromethyl)phenoxy)benzonitrile], the IC50 was not above 10 nM. For `CC1CCn2c(cc(OCc3cccc(C#N)c3)nc2=O)N1C` (centres unmarked) [E10, 3-(((1,2-dimethyl-6-oxo-2,3,4,6-tetrahydro-1H-pyrimido[1,6-a]pyrimidin-8-yl)oxy)methyl)benzonitrile], the IC50 was not above 100 nM. Then `C[C@H]1CCn2c(cc(OCc3ccc(Oc4ccc(Cl)c(F)c4)c(C#N)c3)nc2=O)N1C` [E66, (S)-2-(4-chloro-3-fluorophenoxy)-5-(((1,2-dimethyl-6-oxo-2,3,4,6-tetrahydro-1H-pyrimido[1,6-a]pyrimidin-8-yl)oxy)methyl)benzonitrile], with not above 10 nM; and `C[C@@H]1CCn2c(cc(OCc3ccc(F)cc3)nc2=O)N1` [E27, (R)-8-((4-fluorobenzyl)oxy)-2-methyl-3,4-dihydro-1H-pyrimido[1,6-a]pyrimidin-6(2H)-one], with not above 100 nM.

Consider `[2H]C([2H])(Oc1cc2n(c(=O)n1)CC[C@H](C)N2C)c1cc(F)cc(F)c1` [E49, (S)-8-((3,5-difluorophenyl)dideuteromethoxy)-1,2-dimethyl-3,4-dihydro-1H-pyrimido[1,6-a]pyrimidin-6(2H)-one], for which the IC50 was not above 100 nM. The result for `C[C@H]1CCn2c(cc(OCc3ccc(F)c(F)c3)nc2=O)N1` [E40, (S)-8-((3,4-difluorobenzyl)oxy)-2-methyl-3,4-dihydro-1H-pyrimido[1,6-a]pyrimidin-6(2H)-one] reads not above 100 nM; that for `C[C@H]1CCn2c(cc(OCc3cc(F)c(Oc4ccc(Cl)c(F)c4)c(F)c3)nc2=O)N1C` [E58, (S)-8-((4-(4-chloro-3-fluorophenoxy)-3,5-difluorobenzyl)oxy)-1,2-dimethyl-3,4-dihydro-1H-pyrimido[1,6-a]pyrimidin-6(2H)-one], not above 10 nM; that for `CC(C)N1c2cc(OCc3cccc(F)c3F)nc(=O)n2CC[C@@H]1C` [E139, (S)-8-((2,3-difluorobenzyl)oxy)-1-isopropyl-2-methyl-3,4-dihydro-1H-pyrimido[1,6-a]pyrimidin-6(2H)-one], not above 100 nM. With `C[C@H]1CCn2c(cc(OCc3cc(F)c(F)c(F)c3)nc2=O)N1` [E45, (S)-2-methyl-8-((3,4,5-trifluorobenzyl)oxy)-3,4-dihydro-1H-pyrimido[1,6-a]pyrimidin-6(2H)-one], the IC50 was not above 10 nM. Then `C[C@H]1CCn2c(cc(OCc3cccc(C#N)c3)nc2=O)N1C` [E128, (S)-3-(((1,2-dimethyl-6-oxo-2,3,4,6-tetrahydro-1H-pyrimido[1,6-a]pyrimidin-8-yl)oxy)methyl)benzonitrile], with not above 100 nM; and `[2H]C([2H])(Oc1cc2n(c(=O)n1)CC[C@@H](C)N2C)c1cccc(F)c1F` [E19, (R)-8-((2,3-difluorophenyl)dideuteromethoxy)-1,2-dimethyl-3,4-dihydro-1H-pyrimido[1,6-a]pyrimidin-6(2H)-one], with not above 100 nM.
